From the supplement of paper PMC10627819

Legend:
S. pneumoniae D39V [1] = test: Bliss interaction score (quartile over a dose matrix) (fitness difference); higher = more antagonism (negative = synergy)
Procedure, shortened: (§1)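 Each plate was normalised to the robust mean of its own no-drug wells, using OD595 at entry into stationary phase, with values capped at 1. This normalised growth is the fitness value. The Bliss score is the difference between observed and product-expected fitness, with single-drug fitness inferred from the combination data and quartiles taken over technical, biological and donor/recipient replicates.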

S. aureus Newman [2] = test: as above
Procedure, shortened: as §1

S. aureus DSM 20231 [3] = test: as above
Procedure, shortened: as §1

B. subtilis 168 [4] = test: as above
Procedure, shortened: as §1

S. aureus Newman [5] = test: fitness (endpoint OD595 vs no drug) (fraction); higher = more growth
Procedure, shortened: (§2)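 Fitness was defined as the optical density at the transition into stationary phase relative to the robust mean of no-drug control wells. Values were capped at 1. Cultures were started at OD595 0.01 in 384-well plates (30 µl, or 55 µl for S. pneumoniae) in TSB, LB Lennox or CY at 37 °C. OD595 was recorded every 30 min over 14 h, with the first reading subtracted as background.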

S. aureus DSM 20231 [6] = test: as above
Procedure, shortened: as §2

S. pneumoniae D39V [7] = test: as above
Procedure, shortened: as §2

B. subtilis 168 [8] = test: as above
Procedure, shortened: as §2
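Wherever Bliss interaction score (quartile over a dose matrix) is given: first quartile when negative (synergy) and third quartile when positive (antagonism).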

COc1cccc2c1C(=O)c1c(O)c3c(c(O)c1C2=O)C[C@@](O)(C(=O)CO)C[C@@H]3O[C@H]1C[C@H](N)[C@H](O)[C@H](C)O1 [Doxorubicin] + CCCCCCCCCC(=O)N[C@@H]1[C@H]([C@@H]([C@H](O[C@H]1OC2=C3C=C4C=C2OC5=C(C=C(C=C5)[C@H]([C@H]6C(=O)N[C@@H](C7=C(C(=CC(=C7)O)OC8[C@H]([C@H]([C@@H]([C@H](O8)CO)O)O)O)C9=C(C=CC(=C9)[C@H](C(=O)N6)NC(=O)[C@@H]4NC(=O)[C@@H]1C2=CC(=CC(=C2)OC2=C(C=CC(=C2)[C@H](C(=O)N[C@H](CC2=CC(=C(O3)C=C2)Cl)C(=O)N1)N)O)O)O)C(=O)O)O[C@H]1[C@@H]([C@H]([C@@H]([C@H](O1)CO)O)O)NC(=O)C)Cl)CO)O)O [Teicoplanin]
main component drawn
Details | Bliss interaction score
B. subtilis 168 [4] | 0.0931
S. aureus DSM 20231 [3] | 0.0684
S. aureus Newman [2] | 0.0378
S. pneumoniae D39V [1] | 0.102

fitness, main component drawn
Details | first compound 0.625 µg/mL | first compound 1.25 µg/mL | first compound 2.5 µg/mL
S. aureus DSM 20231 [6], partner 0.1562 µg/mL | 0.889 | 0.885 | 0.922
S. aureus DSM 20231 [6], partner 0.3125 µg/mL | 0.979 | 0.965 | 0.939
S. aureus DSM 20231 [6], partner 0.625 µg/mL | ≥ 1 | ≥ 1 | 0.978
S. aureus Newman [5], partner 0.1562 µg/mL | 0.886 | 0.809 | 0.728
S. aureus Newman [5], partner 0.3125 µg/mL | 0.872 | 0.808 | 0.713
S. aureus Newman [5], partner 0.625 µg/mL | 0.841 | 0.791 | 0.677

fitness, S. aureus Newman [5], one replicate, main component drawn
Details | first compound 0.625 µg/mL | first compound 1.25 µg/mL | first compound 2.5 µg/mL
partner 0.62 µg/mL | 0.713 | 0.736 | 0.716
partner 1.24 µg/mL | 0.666 | 0.613 | 0.622
partner 2.48 µg/mL | 0.339 | 0.283 | 0.237

COc1cccc2c1C(=O)c1c(O)c3c(c(O)c1C2=O)C[C@@](O)(C(=O)CO)C[C@@H]3O[C@H]1C[C@H](N)[C@H](O)[C@H](C)O1 [Doxorubicin] + CCC[C@@H]1C[C@@H](C(=O)N[C@@H]([C@H]2O[C@H](SC)[C@H](O)[C@@H](O)[C@H]2O)[C@@H](C)O)N(C)C1 [Lincomycin]
Details | Bliss interaction score
B. subtilis 168 [4] | 0.0938
S. aureus DSM 20231 [3] | 0.167
S. aureus Newman [2] | 0.164
S. pneumoniae D39V [1] | -0.0622

fitness
Details | partner 0.1 µg/mL | partner 0.2 µg/mL | partner 0.215 µg/mL | partner 0.4 µg/mL | partner 0.43 µg/mL | partner 0.8 µg/mL | partner 0.86 µg/mL
B. subtilis 168 [8], first compound 0.625 µg/mL | 0.903 | 0.882 | – | 0.914 | – | – | –
B. subtilis 168 [8], first compound 1.25 µg/mL | 0.878 | 0.857 | – | 0.88 | – | – | –
B. subtilis 168 [8], first compound 2.5 µg/mL | 0.726 | 0.668 | – | 0.65 | – | – | –
S. aureus DSM 20231 [6], first compound 0.625 µg/mL | 0.816 | 0.757 | – | – | – | – | –
S. aureus DSM 20231 [6], first compound 1.25 µg/mL | 0.853 | 0.835 | – | – | – | – | –
S. aureus DSM 20231 [6], first compound 2.5 µg/mL | 0.875 | 0.73 | – | – | – | – | –
S. pneumoniae D39V [7], first compound 0.25 µg/mL | – | 0.57 | 0.75 | 0.337 | 0.626 | 0.0441 | 0.427
S. pneumoniae D39V [7], first compound 0.5 µg/mL | – | 0.558 | 0.744 | 0.325 | 0.67 | 0.0345 | 0.372
S. pneumoniae D39V [7], first compound 1 µg/mL | – | 0.465 | 0.792 | 0.278 | 0.664 | 0.0189 | 0.307

fitness, B. subtilis 168 [8], one replicate
Details | first compound 0.625 µg/mL | first compound 1.25 µg/mL | first compound 2.5 µg/mL
partner 0.8 µg/mL | 0.959 | 0.831 | 0.638
partner 1.6 µg/mL | 0.914 | 0.89 | 0.684

COc1cccc2c1C(=O)c1c(O)c3c(c(O)c1C2=O)C[C@@](O)(C(=O)CO)C[C@@H]3O[C@H]1C[C@H](N)[C@H](O)[C@H](C)O1 [Doxorubicin] + CN[C@H](CC(C)C)C(=O)N[C@H]1C(=O)N[C@@H](CC(N)=O)C(=O)N[C@H]2C(=O)N[C@H]3C(=O)N[C@H](C(=O)N[C@H](C(=O)O)c4cc(O)cc(O)c4-c4cc3ccc4O)[C@H](O)c3ccc(c(Cl)c3)Oc3cc2cc(c3O[C@@H]2O[C@H](CO)[C@@H](O)[C@H](O)[C@H]2O[C@H]2C[C@](C)(N)[C@H](O)[C@H](C)O2)Oc2ccc(cc2Cl)[C@H]1O [Vancomycin]
Details | Bliss interaction score
B. subtilis 168 [4] | -0.0982
S. aureus DSM 20231 [3] | -0.0449
S. aureus Newman [2] | -0.0426
S. pneumoniae D39V [1] | 0.048

Details | fitness
S. aureus DSM 20231 [6], first compound 0.625 µg/mL, partner 0.1875 µg/mL | 0.843
S. aureus DSM 20231 [6], first compound 0.625 µg/mL, partner 0.375 µg/mL | 0.869
S. aureus DSM 20231 [6], first compound 0.625 µg/mL, partner 0.75 µg/mL | 0.888
S. aureus DSM 20231 [6], first compound 1.25 µg/mL, partner 0.1875 µg/mL | 0.84
S. aureus DSM 20231 [6], first compound 1.25 µg/mL, partner 0.375 µg/mL | 0.927
S. aureus DSM 20231 [6], first compound 1.25 µg/mL, partner 0.75 µg/mL | 0.894
S. aureus DSM 20231 [6], first compound 2.5 µg/mL, partner 0.1875 µg/mL | 0.787
S. aureus DSM 20231 [6], first compound 2.5 µg/mL, partner 0.375 µg/mL | 0.952
S. aureus DSM 20231 [6], first compound 2.5 µg/mL, partner 0.75 µg/mL | 0.907
S. aureus Newman [5], first compound 0.625 µg/mL, partner 0.1875 µg/mL | 0.849
S. aureus Newman [5], first compound 0.625 µg/mL, partner 0.375 µg/mL | 0.825
S. aureus Newman [5], first compound 0.625 µg/mL, partner 0.75 µg/mL | 0.851
S. aureus Newman [5], first compound 1.25 µg/mL, partner 0.1875 µg/mL | 0.823
S. aureus Newman [5], first compound 1.25 µg/mL, partner 0.375 µg/mL | 0.814
S. aureus Newman [5], first compound 1.25 µg/mL, partner 0.75 µg/mL | 0.794
S. aureus Newman [5], first compound 2.5 µg/mL, partner 0.1875 µg/mL | 0.764
S. aureus Newman [5], first compound 2.5 µg/mL, partner 0.375 µg/mL | 0.745
S. aureus Newman [5], first compound 2.5 µg/mL, partner 0.75 µg/mL | 0.731
S. pneumoniae D39V [7], first compound 0.25 µg/mL, partner 0.03125 µg/mL | 0.92
S. pneumoniae D39V [7], first compound 0.25 µg/mL, partner 0.0625 µg/mL | 0.851
S. pneumoniae D39V [7], first compound 0.25 µg/mL, partner 0.125 µg/mL | 0.88
S. pneumoniae D39V [7], first compound 0.25 µg/mL, partner 0.5 µg/mL | 0.0816
S. pneumoniae D39V [7], first compound 0.5 µg/mL, partner 0.03125 µg/mL | 0.924
S. pneumoniae D39V [7], first compound 0.5 µg/mL, partner 0.0625 µg/mL | 0.898
S. pneumoniae D39V [7], first compound 0.5 µg/mL, partner 0.125 µg/mL | 0.913
S. pneumoniae D39V [7], first compound 0.5 µg/mL, partner 0.5 µg/mL | 0.0725
S. pneumoniae D39V [7], first compound 1 µg/mL, partner 0.03125 µg/mL | 0.865
S. pneumoniae D39V [7], first compound 1 µg/mL, partner 0.0625 µg/mL | 0.8
S. pneumoniae D39V [7], first compound 1 µg/mL, partner 0.25 µg/mL | 0.377
S. pneumoniae D39V [7], first compound 1 µg/mL, partner 0.5 µg/mL | 0.0604
